According to ChEMBL document CHEMBL1130019, “Discovery of potent isoxazoline glycoprotein IIb/IIIa receptor antagonists” (J Med Chem, 1997):
Values belong to the molecule of their own block, whether it stands above or below them.

Columns and labels:
[1] = target: T1, Integrin alpha-IIb/beta-3 (Homo sapiens, UniProt P05106+P08514); assay: Inhibition of human platelet aggregation induced by ADP at 100 uM; type: functional
[2] = system: Integrin alpha-IIb/beta-3 (Canis lupus familiaris); assay: Inhibition of ADP-mediated platelet aggregation over 6 hr; settings: concentration not given here
[3] = target: T1, Integrin alpha-IIb/beta-3; assay: Inhibition of Fibrinogen Receptor integrin alphaIIb-beta3 in ELISA; type: protein-complex assay
Target sequence in this assay (P05106 27-788 limits assumed): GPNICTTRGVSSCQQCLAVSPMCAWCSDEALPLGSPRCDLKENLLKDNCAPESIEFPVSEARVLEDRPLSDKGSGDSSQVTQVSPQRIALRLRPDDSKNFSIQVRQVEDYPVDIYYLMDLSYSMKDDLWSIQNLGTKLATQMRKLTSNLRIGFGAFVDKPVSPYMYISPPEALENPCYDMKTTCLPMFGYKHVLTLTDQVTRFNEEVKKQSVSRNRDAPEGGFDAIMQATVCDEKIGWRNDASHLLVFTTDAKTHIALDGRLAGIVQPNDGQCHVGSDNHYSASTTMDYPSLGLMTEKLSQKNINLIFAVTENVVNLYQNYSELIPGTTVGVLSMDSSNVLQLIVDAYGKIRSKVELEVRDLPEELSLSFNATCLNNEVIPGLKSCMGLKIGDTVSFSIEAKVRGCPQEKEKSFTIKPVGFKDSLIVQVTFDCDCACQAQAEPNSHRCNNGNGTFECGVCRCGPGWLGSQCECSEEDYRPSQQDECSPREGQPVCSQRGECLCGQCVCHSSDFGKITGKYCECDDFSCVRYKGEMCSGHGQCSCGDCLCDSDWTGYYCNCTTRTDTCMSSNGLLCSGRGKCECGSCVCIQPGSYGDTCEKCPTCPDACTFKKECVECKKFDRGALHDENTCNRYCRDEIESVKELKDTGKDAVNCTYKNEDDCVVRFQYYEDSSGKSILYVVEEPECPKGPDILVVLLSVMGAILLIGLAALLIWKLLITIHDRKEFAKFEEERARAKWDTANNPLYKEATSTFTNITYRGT
Target sequence in this assay (P08514 32-887 limits assumed): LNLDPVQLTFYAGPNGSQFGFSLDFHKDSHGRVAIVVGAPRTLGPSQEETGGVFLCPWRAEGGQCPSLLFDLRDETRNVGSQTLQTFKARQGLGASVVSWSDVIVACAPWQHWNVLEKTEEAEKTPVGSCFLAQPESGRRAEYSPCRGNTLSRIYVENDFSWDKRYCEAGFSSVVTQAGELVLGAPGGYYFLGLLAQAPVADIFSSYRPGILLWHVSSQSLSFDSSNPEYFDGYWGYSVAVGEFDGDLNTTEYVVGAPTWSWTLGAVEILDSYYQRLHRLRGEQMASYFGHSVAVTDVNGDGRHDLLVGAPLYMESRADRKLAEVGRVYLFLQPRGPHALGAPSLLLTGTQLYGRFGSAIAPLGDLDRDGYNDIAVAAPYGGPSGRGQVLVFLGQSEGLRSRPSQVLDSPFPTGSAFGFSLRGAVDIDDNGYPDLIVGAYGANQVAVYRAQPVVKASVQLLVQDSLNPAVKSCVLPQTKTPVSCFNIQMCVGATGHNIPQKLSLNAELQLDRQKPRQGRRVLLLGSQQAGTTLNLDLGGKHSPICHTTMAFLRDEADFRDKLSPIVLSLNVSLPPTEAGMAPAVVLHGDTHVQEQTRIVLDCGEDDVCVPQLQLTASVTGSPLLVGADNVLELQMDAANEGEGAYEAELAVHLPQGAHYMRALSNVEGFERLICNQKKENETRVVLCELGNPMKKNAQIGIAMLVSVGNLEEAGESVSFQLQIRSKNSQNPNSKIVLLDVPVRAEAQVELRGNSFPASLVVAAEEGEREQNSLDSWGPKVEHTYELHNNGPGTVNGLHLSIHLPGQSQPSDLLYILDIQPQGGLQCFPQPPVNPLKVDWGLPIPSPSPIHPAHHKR
Target sequence in this assay (P08514 891-1039 limits assumed): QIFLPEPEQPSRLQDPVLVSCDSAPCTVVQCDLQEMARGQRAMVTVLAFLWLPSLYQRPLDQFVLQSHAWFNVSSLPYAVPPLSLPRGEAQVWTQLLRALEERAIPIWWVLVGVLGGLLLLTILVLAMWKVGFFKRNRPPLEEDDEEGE

[4] = Inhibition of interaction between HUVEC cells and Vitronectin; type: cell-based, Homo sapiens
[5] = target: T2, Integrin alpha-M/beta-2 (Homo sapiens, UniProt P05107+P11215); assay: Inhibition of Mac-1 integrin (alphaM-beta2); type: protein-complex assay
[6] = target: T1, Integrin alpha-IIb/beta-3; assay: Inhibition of [125I]fibrinogen binding to activated human platelets; type: functional
Target sequence in this assay (P05106 27-788 limits assumed): as the sequence (P05106 27-788 limits assumed) above
Target sequence in this assay (P08514 32-887 limits assumed): as the sequence (P08514 32-887 limits assumed) above
Target sequence in this assay (P08514 891-1039 limits assumed): as the sequence (P08514 891-1039 limits assumed) above

[7] = target: T2, Integrin alpha-M/beta-2; assay: Inhibition of Mac-1 interaction with ICAM; type: protein-complex assay
[8] = target: Integrin alpha-5/beta-1 (Homo sapiens, UniProt P05556+P08648); assay: Inhibition of interaction between HUVEC cells and fibronectin; type: cell-based
[9] = target: Integrin alpha-4/beta-1 (Homo sapiens, UniProt P05556+P13612); assay: Inhibition of VLA-4 integrin alpha4-beta1 interaction with VCAM; type: protein-complex assay

T2 sequence (P05107 23-769 limits assumed, other chains not shown): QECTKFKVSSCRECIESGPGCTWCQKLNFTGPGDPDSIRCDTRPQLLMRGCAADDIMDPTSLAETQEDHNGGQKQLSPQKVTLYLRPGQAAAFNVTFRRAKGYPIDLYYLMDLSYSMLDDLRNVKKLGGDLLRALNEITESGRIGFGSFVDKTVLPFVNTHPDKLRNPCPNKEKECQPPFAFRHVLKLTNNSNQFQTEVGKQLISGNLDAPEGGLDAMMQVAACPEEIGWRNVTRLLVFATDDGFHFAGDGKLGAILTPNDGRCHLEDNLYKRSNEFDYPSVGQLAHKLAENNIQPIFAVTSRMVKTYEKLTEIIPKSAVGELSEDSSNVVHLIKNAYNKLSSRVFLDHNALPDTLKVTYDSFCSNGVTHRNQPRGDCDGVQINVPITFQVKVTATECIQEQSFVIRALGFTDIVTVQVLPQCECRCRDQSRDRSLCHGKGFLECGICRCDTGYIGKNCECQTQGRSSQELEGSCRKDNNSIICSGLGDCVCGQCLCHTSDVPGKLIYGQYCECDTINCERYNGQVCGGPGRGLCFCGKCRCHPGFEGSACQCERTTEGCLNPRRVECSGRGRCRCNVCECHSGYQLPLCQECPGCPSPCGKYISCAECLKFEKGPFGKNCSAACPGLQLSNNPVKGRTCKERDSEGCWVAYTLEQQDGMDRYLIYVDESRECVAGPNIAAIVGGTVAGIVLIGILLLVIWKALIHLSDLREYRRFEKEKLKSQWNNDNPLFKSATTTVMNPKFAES
Chain of Integrin alpha-5/beta-1 (P05556 21-798 limits assumed): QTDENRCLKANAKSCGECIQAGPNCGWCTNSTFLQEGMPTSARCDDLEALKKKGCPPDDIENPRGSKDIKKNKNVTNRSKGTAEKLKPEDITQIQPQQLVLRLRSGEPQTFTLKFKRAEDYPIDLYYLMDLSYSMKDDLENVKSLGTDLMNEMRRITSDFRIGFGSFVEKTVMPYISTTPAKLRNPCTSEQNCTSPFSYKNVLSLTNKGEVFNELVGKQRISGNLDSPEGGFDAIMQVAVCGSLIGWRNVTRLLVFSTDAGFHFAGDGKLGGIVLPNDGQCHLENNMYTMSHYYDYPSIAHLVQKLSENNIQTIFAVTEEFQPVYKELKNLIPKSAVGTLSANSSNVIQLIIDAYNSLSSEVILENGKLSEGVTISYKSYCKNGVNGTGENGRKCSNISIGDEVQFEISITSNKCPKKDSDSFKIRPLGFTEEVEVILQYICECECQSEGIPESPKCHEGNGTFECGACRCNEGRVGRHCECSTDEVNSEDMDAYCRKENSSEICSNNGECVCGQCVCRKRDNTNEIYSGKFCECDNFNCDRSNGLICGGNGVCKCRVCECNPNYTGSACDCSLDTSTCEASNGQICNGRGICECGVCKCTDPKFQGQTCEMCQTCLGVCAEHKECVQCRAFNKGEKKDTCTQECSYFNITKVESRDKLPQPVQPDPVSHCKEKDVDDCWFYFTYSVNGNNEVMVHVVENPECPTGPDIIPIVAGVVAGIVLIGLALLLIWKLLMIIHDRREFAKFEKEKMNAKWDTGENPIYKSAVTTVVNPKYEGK
Chain of Integrin alpha-5/beta-1 (P08648 42-894 limits assumed): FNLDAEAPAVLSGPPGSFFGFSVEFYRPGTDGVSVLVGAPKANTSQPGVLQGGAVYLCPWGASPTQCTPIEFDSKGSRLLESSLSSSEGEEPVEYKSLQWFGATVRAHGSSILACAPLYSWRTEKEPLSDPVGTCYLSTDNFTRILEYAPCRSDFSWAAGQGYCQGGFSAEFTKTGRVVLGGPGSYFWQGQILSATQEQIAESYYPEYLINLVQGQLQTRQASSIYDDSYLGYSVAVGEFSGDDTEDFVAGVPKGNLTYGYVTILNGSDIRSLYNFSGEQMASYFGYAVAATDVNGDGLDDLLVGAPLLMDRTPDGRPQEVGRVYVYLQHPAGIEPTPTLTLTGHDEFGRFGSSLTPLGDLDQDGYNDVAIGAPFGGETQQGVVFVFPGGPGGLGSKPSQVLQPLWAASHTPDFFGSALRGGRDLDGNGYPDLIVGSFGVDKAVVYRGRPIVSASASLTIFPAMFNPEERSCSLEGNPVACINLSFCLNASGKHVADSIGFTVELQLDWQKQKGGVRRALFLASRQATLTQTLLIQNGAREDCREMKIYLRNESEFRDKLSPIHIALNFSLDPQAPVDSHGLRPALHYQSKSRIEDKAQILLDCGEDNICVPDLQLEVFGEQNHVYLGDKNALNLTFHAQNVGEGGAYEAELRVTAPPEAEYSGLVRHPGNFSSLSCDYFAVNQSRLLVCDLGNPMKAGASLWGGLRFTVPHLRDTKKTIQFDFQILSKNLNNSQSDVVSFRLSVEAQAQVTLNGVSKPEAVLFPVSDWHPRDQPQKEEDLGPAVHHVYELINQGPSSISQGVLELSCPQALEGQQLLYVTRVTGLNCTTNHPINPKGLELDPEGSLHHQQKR
Chain of Integrin alpha-5/beta-1 (P08648 895-1049 limits assumed): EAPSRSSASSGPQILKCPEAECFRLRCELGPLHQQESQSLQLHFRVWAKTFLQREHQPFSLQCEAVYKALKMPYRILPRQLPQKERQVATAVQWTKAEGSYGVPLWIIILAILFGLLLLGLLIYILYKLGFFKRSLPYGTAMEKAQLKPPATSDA

- inhibition [1]: 16.3%
Compound: O=C(O)CCCN1C(=O)CC2(CC(CCC3CCNCC3)=NO2)C1=O (stereo unspecified)

- inhibition [2]: 90%
Compound: CCOC(=O)CCNC(=O)CC1CC(c2ccc(C(=N)N)cc2)=NO1 (stereo unspecified)

- inhibition [1]: 16.6%
Compound: O=C(O)CCN1C(=O)CC2(CC(CCC3CCNCC3)=NO2)C1=O (stereo unspecified)

- IC50 [3]: 1.1 nM
- IC50 [4]: 200 µM
- IC50 [5]: > 100 µM
- IC50 [6]: 10 nM
- IC50 [7]: 100 µM
- IC50 [8]: 180 µM
- IC50 [9]: > 100 µM
Compound: N=C(N)c1ccc(C2=NOC(CC(=O)NCCC(=O)O)C2)cc1 (stereo unspecified)

- inhibition [1]: 24%
Compound: O=C(O)CCCN1C(=O)CC2(CC(CCCC3CCNCC3)=NO2)C1=O (stereo unspecified)
